Measured values: patent US11472845B2, “Antitumor peptide and use thereof” (TOAGOSEI CO., LTD., priority 2019, dated 2022)
Where two headings read alike, the source gives them in different places. Ends that are not written are not given here.

Assays:
Format in all cases: cell-based
[1] = in vitro; conditions: human
Procedure: Currently commercially available human gastric cancer cell lines (FU97), human alveolar basal epithelial adenocarcinoma cell lines (A549), human breast cancer cell lines (MDA-MB-231), and human melanoma cell lines (A375) were prepared as test tumor cells. In addition, normal human mammary epithelial cell culture lines (MCF-12F) were prepared for comparison. A DMEM/F12 culture medium including 20 ng/mL of recombinant EGF, 10 μg/mL of insulin, 0.5 μg/mL of hydrocortisone, and 10% FBS (product, commercially available from Wako Pure Chemical Industries, Ltd.). The above five types of cell lines were cultured in respective designated culture solutions. The cell lines were cultured so that the number of cells per well in a 96-hole (well) plate was about 5×10^3. Here, an amount of the culture solution per well was 100 μL. The 96-well plate was then placed in a CO2 incubator. Then, pre-incubation was performed under conditions of 37° C. and 5% CO2 for about 1 day (about 23 hours). Then, regarding the culture solution for the peptide addition area, culture solutions containing Sample 1 for each concentration were prepared so that the concentration of Sample 1 was 6.25 μM, 12.5 μM or 25 μM and supplied to wells (that is, wells after the pre-incubation) in which 90 μL of cells to be evaluated were cultured in each well. On the other hand, regarding the culture solution for the comparative test area, a culture solution to which no Sample 1 was added was prepared, and supplied to wells (that is, wells after the pre-incubation) in which 90 μL of cells to be evaluated were cultured in each well. The 96-well plate was then placed in a CO2 incubator, and incubated under conditions of 37° C. and 5% CO2 for 48 hours. […] Then, the absorbance at a wavelength of 450 nm (value corrected by the absorbance at a wavelength of 620 nm: A450-A620) was measured based on the reduction of the tetrazolium salt in the culture solution. Then, the cell viability was calculated according to a colorimetric method. […]

[2] = system: tumor cells derived from non-human mammals; test: Antitumor activity on tumor cells derived from non-human mammals (data not shown); conditions: detailed data not shown
[3] = system: human melanoma cell lines (A375); conditions: for Cell viability (%) of test cells: human, 48 h
Procedure: The antitumor activity of Sample 1 synthesized in the above Test Example 1 with respect to human-derived cultured tumor cells was evaluated. Currently commercially available human gastric cancer cell lines (FU97), human alveolar basal epithelial adenocarcinoma cell lines (A549), human breast cancer cell lines (MDA-MB-231), and human melanoma cell lines (A375) were prepared as test tumor cells. In addition, normal human mammary epithelial cell culture lines (MCF-12F) were prepared for comparison. A DMEM culture medium including 50 unit/mL of penicillin, 50 μg/mL of streptomycin, and 10% FBS. The above five types of cell lines were cultured in respective designated culture solutions. The cell lines were cultured so that the number of cells per well in a 96-hole (well) plate was about 5×10^3. Here, an amount of the culture solution per well was 100 μL. The 96-well plate was then placed in a CO2 incubator. Then, pre-incubation was performed under conditions of 37° C. and 5% CO2 for about 1 day (about 23 hours). Then, regarding the culture solution for the peptide addition area, culture solutions containing Sample 1 for each concentration were prepared so that the concentration of Sample 1 was 6.25 μM, 12.5 μM or 25 μM and supplied to wells (that is, wells after the pre-incubation) in which 90 μL of cells to be evaluated were cultured in each well. On the other hand, regarding the culture solution for the comparative test area, a culture solution to which no Sample 1 was added was prepared, and supplied to wells (that is, wells after the pre-incubation) in which 90 μL of cells to be evaluated were cultured in each well. The 96-well plate was then placed in a CO2 incubator, and incubated under conditions of 37° C. and 5% CO2 for 48 hours. After the incubation for 48 hours, the culture solution in each well was replaced with […] a fresh culture solution containing no Sample 1. […] Then, the absorbance at a wavelength of 450 nm (value corrected by the absorbance at a wavelength of 620 nm: A450-A620) was measured based on the reduction of the tetrazolium salt in the culture solution. Then, the cell viability was calculated according to a colorimetric method. In the test areas (test areas 1 to 3) in the peptide addition area, the cell viability of each of the above five types of cell lines was calculated as a relative value when a measured value (measurement absorbance) of the comparative test area in the same cell lines was set as 100%. That is, regarding each of the above five types of cell lines, the cell viability (%) was calculated by dividing the measurement absorbance of the test areas (test areas 1 to 3) in the peptide addition area by the measurement absorbance of the comparative test area in the same cell lines and multiplying by 100.

For “MACLGFQRHKAQLNLATRTWPCTLLFFLLFIPVFCKKRTLRKTDRKKR-NH2 (cysteines drawn unpaired) [Sample 1]”, which viability at 48 h, 6.25 μM [1] is on record?
Its viability at 48 h, 6.25 μM is 130%.

And the viability at 48 h, 12.5 μM [1]?
Its viability at 48 h, 12.5 μM is 114%.

And the viability at 48 h, 25 μM [1]?
The viability at 48 h, 25 μM was 82%.

What about the “antitumor activity and tumor cell-selective antitumor activity” value [2] of the same substance?
The value was “high antitumor activity and tumor cell-selective antitumor activity”.

What about the “Specific cell viability of test tumor cells” value ([3]; A375, 12.5 μM Sample 1, (cell viability of test tumor cells)/(cell viability of MCF-12F cells)×100) of the same substance?
The value was 35.7.

And the “Cell viability (%) of test cells” value ([3]; 6.25 μM)?
The value was 57.8%.

What about the “Cell viability (%) of test cells” value ([3]; 12.5 μM) of the same substance?
Its value is 40.8%.

What about the “Cell viability (%) of test cells” value ([3]; 25 μM) of the same substance?
The value was 31.6%.
